Tests used:
[1] = tested on: human gingival fibroblasts (HGFs); assay: MTT cytocompatibility screening on HGFs, 24 h; format: cell-based; conditions: for HGFs metabolic activity / cell viability (MTT): 10 µM, vs control (DMSO) and RSV; for HGFs cell viability (MTT): vs control and RSV
Water solubility = format: physicochemical; conditions: deionized water, 25 °C
Protocol: An excess of compounds 1d and 1h was placed in 1 mL of deionized water and the suspension was shaken at 25 °C for 15 min to ensure the solubility equilibrium. Next, the supernatant was filtered (Millipore 0.45 µm, Burlington, Massachusetts, USA) and analyzed by HPLC [49].

[2] = Kinetic of chemical hydrolysis, pH 7.0; format: physicochemical; conditions: pH 7.0, 37 °C; for Chemical hydrolysis Kobs: mean of three experiments (SD); for half-life at 18.2 µM: phosphate buffer, read-out: Chemical hydrolysis t ½ (converted)
Protocol: A phosphate buffer (PBS, pH 7.0) was used to estimate the chemical stability. The reaction was started by adding 1 mL of a 2 × 10^−4 M stock solution in ACN to a thermostatic (37 ± 0.5 °C) aqueous buffer solution (8 mL) and 2 mL of acetonitrile, containing 0.1% (v/v) Cremophor ELP. At established time points, samples (200 µL) were withdrawn and analyzed by HPLC. Pseudo-first-order rate constants (kobs) for the hydrolysis of the compound were calculated from the slopes of the linear plots of log (% residual compound) against time. The results are expressed as mean values of three different experiments.

FN1 mRNA in HGFs = assay: RT-qPCR of FN1 in HGFs; format: cell-based, human; conditions: 5, 10, 20 µM, 48 and 72 h, compared to RSV-treated cells and CTRL
Protocol: Total RNA was isolated using Trifast reagent (EuroClone) according to the manufacturer instructions from 3 × 10^5 cells/well treated with increasing concentrations of 1d and 1h for 48 h and 72 h. Complementary DNA (cDNA) was obtained using GoTaq® 2 Step RT-qPCR Kit (Promega, Madison, WI, USA) in accordance with the manufacturer’s instructions. RT-qPCR was carried out using SYBR Green (Promega) on the Quant Studio 7 Pro Real-Time PCR System (ThermoFisher, Waltham, MA, USA). The results were normalized to glyceraldehyde 3-phoshate dehydrogenase (GAPDH) for HUVECs and HGFs and to β-actin (βACT) for HOBs using the 2^−ΔΔCt method.

HGFs = assay: LDH release assay on HGFs; format: cell-based, human; conditions: 24 h
Protocol: Lactate Dehydrogenase (LDH) activity in HUVECs, HGFs, and HOBs was measured with a cytotoxicity detection kit LDH (Roche, Basilea, Swiss). Firstly, 5000 cells/well (HUVECs, HGFs and HOBs) were seeded in 96-well plates and treated with 1d and 1h (5, 10, 20 µM). After 24 h, the assay was performed according to manufacturer instructions. LDH release was calculated as a percentage with respect to the control (CTRL).

[3] = Kinetics in human plasma (enzymatic hydrolysis); format: in vitro ADME; conditions: 37 °C; for Enzymatic hydrolysis t ½ / Enzymatic hydrolysis Kobs: Human plasma; for Enzymatic hydrolysis Kobs: mean of three experiments (SD); for half-life at 40 µg/mL: human, human plasma (80%) diluted with phosphate buffer, pH 7.4, Human plasma, read-out: Enzymatic hydrolysis t ½
Protocol: Human plasma was obtained from 3H Biomedical (Uppsala, Sweden, Europe). Plasma fractions (2 mL) were diluted with […] of a 0.02 M phosphate buffer (PBS, pH 7.4) to obtain a final volume of 2.5 mL (80% of plasma). A total of 100 µL of a stock solution, prepared to dissolve 1 mg of each compound in 1 mL of ACN, was added. Studies were performed at 37 ± 0.5 °C using a shaking bath. Aliquots (100 µL) were taken at established time points and treated with 400 µL of 0.01 M HCl in methanol. After centrifugation for 15 min at 6000× g, the supernatant was filtered and analyzed by HPLC [51].

HUVECs = assay: Toluidine blue staining, morphology and confluence of HUVECs; format: cell-based, human; conditions: 5 µM; for HUVECs confluence: 48 h, compared to CTRL and RSV; for HUVECs growth / confluence: 72 h, compared to controls
Protocol: The influence of 1d and 1h was evaluated on cells density and morphology by toluidine-blue staining. A total of 2 × 10^4 cells/well were cultured in 24-well plates and were incubated at 37 °C and 5% CO2 with tested compounds at 5 µM. After 48 and 72 h, adherent cells were fixed with 70% cold ethanol and stained with 1% toluidine blue and 1% borax (Sigma Aldrich, St. Louis, MO, USA). Cells were then observed by an inverted microscope connected with a camera at 40×, 100×, and 200× magnifications (Leica, Wild Heer-brugg, Wetzlar, Germany).

HOBs = assay: MTT viability/proliferation on HOBs; format: cell-based, human; conditions: vs CTRL and RSV 10 µM
Protocol: To measure HUVECs, HGFs, and HOBs metabolic activity as an indicator of cell viability and proliferation, an MTT assay (Sigma Aldrich, Milan, Italy) was performed. In brief, 8000 cells/well (HUVECs, HGFs and HOBs) were seeded in 96-well plates and after 24 h cells were treated with increasing concentrations of 1d and 1h for 48 h and 72 h. Then, the medium was replaced by a fresh one supplemented with […] MTT and probed for 4 h at 37 °C. The medium containing MTT was discarded and replaced by an equal volume of DMSO to dissolve formazan crystals. The absorbance of the solution was read at a 540 nm wavelength by a microplate reader (Multiskan GO, Thermo Scientific, MA, USA). Values obtained without cells were considered as background. Viability and proliferation were normalized to control cells treated with DMSO 0.1%.

[4] = tested on: Alkaline phosphatase (ALP) activity in HOBs; assay: ALP activity assay in HOBs; format: cell-based, human; conditions: 5 µM, 7 days, compared to CTRL and RSV; not statistically significant
Protocol: Alkaline phosphatase (ALP) activity was evaluated by ALP assay kit colorimetric AB83369 (Abcam Inc., Cambridge, UK). HOBs were seeded at a density of 5 × 10^4 cells/well and treated with 1d and 1h. After 7 days of culture, cell lysate was obtained, and ALP levels were measured according to the manufacturer instructions. The absorbance was measured at 450 nm by a microplate reader (Synergy H1 Hybrid BioTek Instruments, Winooski, VT, USA).

[5] = 10 and 20 µM, differences not significant

| SMILES | HGFs metabolic activity / cell viability (MTT) [1] | HGFs cell viability (MTT) ([1]; 20 µM) | HGFs cell viability (MTT) ([1]; 50 µM) | Water solubility (Water solubility) | Chemical hydrolysis Kobs [2] | half-life at 18.2 µM [2] | FN1 mRNA level (FN1 mRNA in HGFs) | LDH release (HGFs; 5 µM) | LDH release (HGFs; [5]) | melting point | Enzymatic hydrolysis t ½ [3] | Enzymatic hydrolysis Kobs [3] | half-life at 40 µg/mL [3] | HUVECs confluence (HUVECs) | HUVECs growth / confluence (HUVECs) | HOBs metabolic activity / proliferation (MTT) (HOBs; 5 µM, 48 h) | HOBs metabolic activity / proliferation (MTT) (HOBs; 5 µM, 72 h) | HOBs metabolic activity / proliferation (MTT) (HOBs; 10 µM, 48 h) | ALP activity in HOBs [4] | HOBs metabolic activity / proliferation (MTT) (HOBs; 20 µM, 48 h) |
| --- | --- | --- | --- | --- | --- | --- | --- | --- | --- | --- | --- | --- | --- | --- | --- | --- | --- | --- | --- | --- |
| Cc1ccc(S(=O)(=O)Nc2ccc(/C=C/c3ccccc3)cc2)cc1 [1d, 4-Methyl-N-{4-[(E)-2-phenylvinyl]phenyl}benzenesulfonamide] | statistically augmented the cell viability | statistically significant increase in HGF viability | positively and statistically increases cell viability | insoluble in water | 0.050 (±0.004) h^−1 | 13.9 h | no significant modifications | lowest LDH values | slightly increased the LDH | 182 to 183 °C | 49.5 h | 0.014 (±0.005) h^−1 | > 49 h | reached confluence approximately earlier | growth was more consistent | enhanced the metabolic activity of osteoblasts | significantly promoted the proliferation of cells | slightly promoted cell growth | enhanced |  |
| CCS(=O)(=O)Nc1ccc(/C=C/c2ccccc2)cc1 [1h, N-{4-[(E)-2-Phenylvinyl]phenyl}ethanesulfonamide] | statistically augmented the cell viability | slight increase in HGF viability | no statistically significant differences | insoluble in water | 0.030 (±0.001) h^−1 | 23.4 h | no significant modifications | lowest LDH values | slightly increased the LDH | 230 to 231 °C | 51.7 h | 0.013 (±0.003) h^−1 | > 49 h | reached confluence approximately earlier | growth was more consistent | enhanced the metabolic activity of osteoblasts | significantly enhanced cell proliferation with respect to the CTRL | slightly promoted cell growth | same ALP levels observed in the control cells and osteoblasts treated with RSV | decreased in respect to the CTRL and RSV |

Reference: article PMC9963438, “Emerging Effects of Resveratrol Derivatives in Cells Involved in Oral Wound Healing: A Preliminary Study” (International Journal of Molecular Sciences, 2023)
